According to ChEMBL document CHEMBL1201862, “PubChem BioAssay data set” (2004):
Activity calls are given as the source filed them.

Experiments:
[1] = biological target: T1, Alkaline phosphatase, tissue-nonspecific isozyme (Homo sapiens, UniProt P05186); test: inhibition of tissue-nonspecific alkaline phosphatase – biochemical, dose response (AID 488882); type: functional
T1 sequence (P05186 whole entry): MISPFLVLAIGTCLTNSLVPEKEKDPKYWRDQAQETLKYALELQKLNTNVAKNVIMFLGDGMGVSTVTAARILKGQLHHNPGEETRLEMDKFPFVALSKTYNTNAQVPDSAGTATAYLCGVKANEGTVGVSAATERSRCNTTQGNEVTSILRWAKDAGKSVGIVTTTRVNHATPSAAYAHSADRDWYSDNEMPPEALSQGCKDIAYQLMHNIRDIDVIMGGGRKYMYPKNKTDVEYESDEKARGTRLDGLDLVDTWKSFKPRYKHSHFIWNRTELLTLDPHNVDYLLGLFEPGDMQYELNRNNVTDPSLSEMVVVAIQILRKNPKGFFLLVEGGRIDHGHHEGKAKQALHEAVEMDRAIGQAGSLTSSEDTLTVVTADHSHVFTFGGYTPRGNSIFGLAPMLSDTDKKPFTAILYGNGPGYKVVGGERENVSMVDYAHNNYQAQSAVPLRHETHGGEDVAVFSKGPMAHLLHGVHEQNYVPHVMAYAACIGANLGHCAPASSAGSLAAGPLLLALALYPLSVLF

[2] = Counterscreen for activators of the function of SWI/SNF related, matrix associated, actin dependent regulator of chromatin, subfamily a, member 2 (SMARCA2, BRM): Luminescence-based cell-based high throughput dose response assay to identify non-selective compounds using the VP16 reporter assay.; type: functional
[3] = Trypanosoma cruzi growth suppression in host cells – NIH3T3 host cells, beta-gal luminescence, confirmation (AID 2044); type: functional, cell-based;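 further: intracellular parasites grown in NIH/3T3 mouse fibroblasts as host cells; luminescent beta-galactosidase reporter signal from transgenic T. cruzi replicating inside host cells; inhibitors lower the luminescence signal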
[4] = NIH3T3 cell viability loss – ATP luminescence, mouse fibroblasts, counter-screen, dose response (AID 2010); type: functional, cell-based;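 further: cells exposed to compound for about 90 hours before reading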
[5] = system: INS1; test: INS-1E survival protection against cytokine death – cell-based, luminescence, retest, dose response (AID 449756); type: functional; conditions: Rattus norvegicus;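 further: cell death triggered by IL-1 beta plus TNF-alpha plus IFN-gamma mixture; protective hits raise ATP signal compared with cytokine alone wells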
[6] = biological target: T2, Intestinal-type alkaline phosphatase (Homo sapiens, UniProt P09923); test: Dose Response confirmation of uHTS hits from a small molecule inhibitors of human intestinal alkaline phosphatase via a luminescent assay. [Related pubchem assays (depositor defined):AID2544, AID2574]; type: functional
T2 sequence (P09923 whole entry): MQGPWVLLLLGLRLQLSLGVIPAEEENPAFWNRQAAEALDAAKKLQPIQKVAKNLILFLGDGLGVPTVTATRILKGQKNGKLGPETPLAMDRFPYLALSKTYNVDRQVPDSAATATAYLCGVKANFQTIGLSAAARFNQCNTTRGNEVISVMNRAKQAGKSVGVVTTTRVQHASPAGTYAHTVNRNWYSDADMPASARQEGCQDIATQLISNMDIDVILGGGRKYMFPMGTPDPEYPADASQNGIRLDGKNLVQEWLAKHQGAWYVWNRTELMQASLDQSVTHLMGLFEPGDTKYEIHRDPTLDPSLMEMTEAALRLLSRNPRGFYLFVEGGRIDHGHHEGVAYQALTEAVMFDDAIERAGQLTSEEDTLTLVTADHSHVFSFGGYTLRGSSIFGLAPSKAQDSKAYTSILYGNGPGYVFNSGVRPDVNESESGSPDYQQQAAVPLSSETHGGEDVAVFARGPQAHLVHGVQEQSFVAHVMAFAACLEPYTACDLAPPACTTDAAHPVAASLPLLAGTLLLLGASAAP

[7] = biological target: SWI/SNF-related matrix-associated actin-dependent regulator of chromatin subfamily A member 2 (Homo sapiens, UniProt P51531); test: Luminescence-based cell-based high throughput dose response assay to identify activators of the function of SWI/SNF related, matrix associated, actin dependent regulator of chromatin, subfamily a, member 2 (SMARCA2, BRM).; type: functional
Sequence of SWI/SNF-related matrix-associated actin-dependent regulator of chromatin subfamily A member 2 (P51531 whole entry): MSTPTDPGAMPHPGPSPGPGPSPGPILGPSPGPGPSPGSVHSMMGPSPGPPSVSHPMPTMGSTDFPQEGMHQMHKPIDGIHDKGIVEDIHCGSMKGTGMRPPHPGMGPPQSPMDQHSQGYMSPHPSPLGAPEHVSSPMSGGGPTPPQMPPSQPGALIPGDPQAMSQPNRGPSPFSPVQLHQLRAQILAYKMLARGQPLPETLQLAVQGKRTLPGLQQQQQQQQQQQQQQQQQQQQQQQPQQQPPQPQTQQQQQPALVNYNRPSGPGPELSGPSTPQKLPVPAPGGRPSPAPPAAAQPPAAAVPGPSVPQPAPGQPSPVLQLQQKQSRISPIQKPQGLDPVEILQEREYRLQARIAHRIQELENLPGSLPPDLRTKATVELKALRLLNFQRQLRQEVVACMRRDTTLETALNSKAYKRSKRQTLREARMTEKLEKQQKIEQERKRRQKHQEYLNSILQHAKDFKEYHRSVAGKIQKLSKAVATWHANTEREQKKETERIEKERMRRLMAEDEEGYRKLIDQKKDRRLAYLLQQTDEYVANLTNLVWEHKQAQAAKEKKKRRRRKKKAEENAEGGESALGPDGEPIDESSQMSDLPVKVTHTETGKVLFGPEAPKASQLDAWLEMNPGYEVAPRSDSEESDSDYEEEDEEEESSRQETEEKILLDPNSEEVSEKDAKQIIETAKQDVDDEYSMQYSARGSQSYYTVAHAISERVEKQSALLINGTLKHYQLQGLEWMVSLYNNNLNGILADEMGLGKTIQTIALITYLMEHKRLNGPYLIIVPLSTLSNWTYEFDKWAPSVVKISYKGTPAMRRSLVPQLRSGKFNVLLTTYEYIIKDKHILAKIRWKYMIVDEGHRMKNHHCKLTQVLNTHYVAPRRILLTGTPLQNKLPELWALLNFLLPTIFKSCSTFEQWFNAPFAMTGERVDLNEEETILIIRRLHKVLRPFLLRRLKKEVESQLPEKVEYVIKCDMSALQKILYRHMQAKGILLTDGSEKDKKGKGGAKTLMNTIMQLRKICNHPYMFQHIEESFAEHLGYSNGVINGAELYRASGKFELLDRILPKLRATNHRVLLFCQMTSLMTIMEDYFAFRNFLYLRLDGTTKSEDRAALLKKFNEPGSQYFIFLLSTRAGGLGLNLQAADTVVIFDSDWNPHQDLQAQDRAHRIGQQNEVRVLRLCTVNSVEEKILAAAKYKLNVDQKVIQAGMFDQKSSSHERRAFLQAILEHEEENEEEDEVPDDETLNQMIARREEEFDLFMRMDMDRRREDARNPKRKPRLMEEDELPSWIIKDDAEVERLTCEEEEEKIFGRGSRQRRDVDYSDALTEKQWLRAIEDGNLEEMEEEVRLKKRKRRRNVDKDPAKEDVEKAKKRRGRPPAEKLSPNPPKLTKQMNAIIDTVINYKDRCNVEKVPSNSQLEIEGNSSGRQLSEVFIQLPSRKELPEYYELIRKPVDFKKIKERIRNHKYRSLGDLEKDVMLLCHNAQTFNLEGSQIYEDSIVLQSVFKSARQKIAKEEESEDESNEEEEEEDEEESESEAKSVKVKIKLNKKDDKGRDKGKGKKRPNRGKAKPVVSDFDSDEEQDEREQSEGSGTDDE

[8] = biological target: T3, DNA repair and recombination protein RAD54-like (Homo sapiens, UniProt Q92698); test: RAD54 Holliday junction migration blockers – biochemical, fluorescence, cherry-picked samples, dose series, confirmation (AID 651657); type: functional
T3 sequence (Q92698 whole entry): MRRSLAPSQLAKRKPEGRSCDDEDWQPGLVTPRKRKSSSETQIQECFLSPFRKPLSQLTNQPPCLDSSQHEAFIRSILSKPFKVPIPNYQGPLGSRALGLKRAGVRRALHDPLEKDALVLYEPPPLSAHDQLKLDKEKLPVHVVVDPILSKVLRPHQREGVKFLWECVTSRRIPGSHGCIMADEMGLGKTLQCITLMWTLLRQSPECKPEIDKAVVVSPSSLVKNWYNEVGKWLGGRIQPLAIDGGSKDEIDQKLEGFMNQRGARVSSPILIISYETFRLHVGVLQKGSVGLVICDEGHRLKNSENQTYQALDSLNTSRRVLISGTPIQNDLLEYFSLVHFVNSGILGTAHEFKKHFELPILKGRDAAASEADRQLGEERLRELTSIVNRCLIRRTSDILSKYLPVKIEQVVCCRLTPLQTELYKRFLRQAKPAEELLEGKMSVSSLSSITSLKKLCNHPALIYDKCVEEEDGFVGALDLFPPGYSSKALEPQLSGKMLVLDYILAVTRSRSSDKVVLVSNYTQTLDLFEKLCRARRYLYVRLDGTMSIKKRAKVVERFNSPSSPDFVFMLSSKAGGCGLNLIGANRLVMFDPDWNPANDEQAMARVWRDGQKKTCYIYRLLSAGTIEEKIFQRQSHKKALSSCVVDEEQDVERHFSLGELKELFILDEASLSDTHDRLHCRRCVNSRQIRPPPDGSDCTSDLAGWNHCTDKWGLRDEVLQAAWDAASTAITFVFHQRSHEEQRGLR

[9] = biological target: T4, Intestinal-type alkaline phosphatase (Mus musculus, UniProt P24822); test: PubChem AID 488874; type: functional
T4 sequence (P24822 whole entry): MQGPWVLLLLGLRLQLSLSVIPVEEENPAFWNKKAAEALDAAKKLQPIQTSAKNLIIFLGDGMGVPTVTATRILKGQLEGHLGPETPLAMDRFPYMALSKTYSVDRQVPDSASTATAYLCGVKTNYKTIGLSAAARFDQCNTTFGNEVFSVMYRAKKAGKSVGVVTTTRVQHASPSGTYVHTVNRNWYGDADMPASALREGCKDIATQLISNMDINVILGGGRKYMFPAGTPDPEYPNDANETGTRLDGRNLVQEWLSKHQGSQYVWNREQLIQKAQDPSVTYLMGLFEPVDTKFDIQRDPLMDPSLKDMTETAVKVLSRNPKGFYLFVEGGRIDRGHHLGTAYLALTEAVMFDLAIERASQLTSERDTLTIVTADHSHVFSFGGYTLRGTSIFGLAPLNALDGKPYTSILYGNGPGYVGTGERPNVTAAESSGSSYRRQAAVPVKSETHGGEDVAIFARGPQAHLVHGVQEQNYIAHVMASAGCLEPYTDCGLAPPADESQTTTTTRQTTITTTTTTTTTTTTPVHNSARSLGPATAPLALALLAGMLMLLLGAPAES

[10] = biological target: T5, DNA repair protein RAD52 homolog (Homo sapiens, UniProt P43351); type: functional, biochemical
T5 sequence (P43351 whole entry): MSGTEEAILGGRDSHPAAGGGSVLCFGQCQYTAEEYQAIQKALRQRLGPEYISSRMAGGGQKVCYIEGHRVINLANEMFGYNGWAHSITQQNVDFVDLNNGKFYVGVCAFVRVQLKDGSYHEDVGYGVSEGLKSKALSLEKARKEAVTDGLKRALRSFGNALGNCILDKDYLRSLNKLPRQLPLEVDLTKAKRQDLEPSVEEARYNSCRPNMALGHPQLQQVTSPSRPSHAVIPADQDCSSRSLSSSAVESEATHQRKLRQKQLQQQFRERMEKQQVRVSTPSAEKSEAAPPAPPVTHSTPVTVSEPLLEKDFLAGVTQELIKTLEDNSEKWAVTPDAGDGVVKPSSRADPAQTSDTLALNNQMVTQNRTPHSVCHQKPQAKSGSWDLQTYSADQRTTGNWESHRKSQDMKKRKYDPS

[11] = biological target: T6, Zinc finger protein mex-5 (Caenorhabditis elegans, UniProt Q9XUB2); test: potency of MEX-5 RNA-binding blockers – biochemical, C. elegans, fluorescence polarization, dose response (AID 1960)
T6 sequence (Q9XUB2 whole entry): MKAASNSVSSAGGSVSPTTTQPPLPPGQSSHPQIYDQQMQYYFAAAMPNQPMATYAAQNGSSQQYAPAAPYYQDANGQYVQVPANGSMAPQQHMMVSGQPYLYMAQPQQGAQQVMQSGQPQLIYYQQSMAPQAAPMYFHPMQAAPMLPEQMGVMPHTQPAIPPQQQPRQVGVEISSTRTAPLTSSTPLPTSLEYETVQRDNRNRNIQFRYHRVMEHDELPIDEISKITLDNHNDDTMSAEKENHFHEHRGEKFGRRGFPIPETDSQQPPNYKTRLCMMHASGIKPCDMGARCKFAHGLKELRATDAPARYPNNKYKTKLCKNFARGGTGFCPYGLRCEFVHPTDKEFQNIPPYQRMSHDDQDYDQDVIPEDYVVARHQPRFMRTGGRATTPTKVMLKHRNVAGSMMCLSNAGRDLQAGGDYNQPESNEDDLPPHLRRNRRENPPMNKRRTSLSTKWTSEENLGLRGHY

[12] = biological target: T7, RNA-binding protein pos-1 (Caenorhabditis elegans, UniProt G5EF15); test: disruptors of C. elegans POS-1 RNA interaction – biochemical, fluorescence polarization, dose response (AID 1964);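 further: purified POS-1 fused to maltose binding protein made in E. coli; potency of compounds blocking POS-1 binding to fluorescent RNA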
T7 sequence (G5EF15 whole entry): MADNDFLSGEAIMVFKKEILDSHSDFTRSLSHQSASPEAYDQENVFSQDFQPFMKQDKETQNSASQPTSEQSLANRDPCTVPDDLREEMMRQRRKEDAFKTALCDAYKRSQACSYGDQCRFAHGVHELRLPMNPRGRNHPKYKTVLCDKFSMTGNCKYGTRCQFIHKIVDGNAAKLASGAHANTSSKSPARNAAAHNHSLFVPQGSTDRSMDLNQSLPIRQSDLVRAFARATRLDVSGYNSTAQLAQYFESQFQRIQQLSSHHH

[13] = biological target: T2, Intestinal-type alkaline phosphatase; test: inhibition of human intestinal alkaline phosphatase – biochemical, luminescent, uHTS hits, set 2, dose response (AID 488793); type: functional
[14] = biological target: CAAX prenyl protease 1 (Saccharomyces cerevisiae S288c, UniProt P47154); test: yeast CAAX protease Ste24 inhibition – biochemical, S. cerevisiae, plate reader, cherry-pick, dose response (AID 488815)
Sequence of CAAX prenyl protease 1 (P47154 whole entry): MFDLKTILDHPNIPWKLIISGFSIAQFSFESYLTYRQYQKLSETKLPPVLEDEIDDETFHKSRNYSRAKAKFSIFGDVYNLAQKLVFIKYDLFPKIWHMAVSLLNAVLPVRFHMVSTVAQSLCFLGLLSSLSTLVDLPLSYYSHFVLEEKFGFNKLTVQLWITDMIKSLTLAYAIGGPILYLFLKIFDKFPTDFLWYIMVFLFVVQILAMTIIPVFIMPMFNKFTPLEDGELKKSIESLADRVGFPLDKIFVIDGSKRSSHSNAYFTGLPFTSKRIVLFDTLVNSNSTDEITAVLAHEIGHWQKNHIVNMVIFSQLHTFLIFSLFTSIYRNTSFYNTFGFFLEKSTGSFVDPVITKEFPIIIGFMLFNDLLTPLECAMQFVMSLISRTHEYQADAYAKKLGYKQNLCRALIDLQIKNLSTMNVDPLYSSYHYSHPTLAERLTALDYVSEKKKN

[15] = biological target: T8, CAAX prenyl protease 2 (Saccharomyces cerevisiae S288c, UniProt Q03530); type: biochemical
T8 sequence (Q03530 whole entry): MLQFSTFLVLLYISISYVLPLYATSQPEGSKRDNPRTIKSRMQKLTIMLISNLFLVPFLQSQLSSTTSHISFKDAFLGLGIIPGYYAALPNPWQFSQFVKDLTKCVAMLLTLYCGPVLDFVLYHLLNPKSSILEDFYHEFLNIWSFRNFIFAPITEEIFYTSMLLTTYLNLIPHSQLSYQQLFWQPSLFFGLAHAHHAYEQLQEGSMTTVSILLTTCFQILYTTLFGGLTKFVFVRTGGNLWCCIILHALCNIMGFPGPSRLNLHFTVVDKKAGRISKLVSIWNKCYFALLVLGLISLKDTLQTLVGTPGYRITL

[16] = biological target: FAD-linked sulfhydryl oxidase ALR (Homo sapiens, UniProt P55789); test: ALR-catalysed DTT oxidation blockers – biochemical, H2O2 detection, luminescence, cherry-pick, dose response (AID 493248)
Sequence of FAD-linked sulfhydryl oxidase ALR (P55789 whole entry): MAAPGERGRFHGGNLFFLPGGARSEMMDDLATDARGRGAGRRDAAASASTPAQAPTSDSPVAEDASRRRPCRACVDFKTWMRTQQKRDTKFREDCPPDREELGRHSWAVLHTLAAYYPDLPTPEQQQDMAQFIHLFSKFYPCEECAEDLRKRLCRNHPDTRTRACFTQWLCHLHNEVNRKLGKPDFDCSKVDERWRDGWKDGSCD

[17] = biological target: Albumin (Bos taurus, UniProt P02769); test: Counterscreen for inhibitors of T-cell receptor (TCR)-CD3 interaction: Fluorescence-based biochemical high throughput dose response assay to identify inhibitors of T-cell receptor (TCR)-CD3 interaction using a TAMRA-labeled BSA probe.; type: functional
Sequence of Albumin (P02769 whole entry): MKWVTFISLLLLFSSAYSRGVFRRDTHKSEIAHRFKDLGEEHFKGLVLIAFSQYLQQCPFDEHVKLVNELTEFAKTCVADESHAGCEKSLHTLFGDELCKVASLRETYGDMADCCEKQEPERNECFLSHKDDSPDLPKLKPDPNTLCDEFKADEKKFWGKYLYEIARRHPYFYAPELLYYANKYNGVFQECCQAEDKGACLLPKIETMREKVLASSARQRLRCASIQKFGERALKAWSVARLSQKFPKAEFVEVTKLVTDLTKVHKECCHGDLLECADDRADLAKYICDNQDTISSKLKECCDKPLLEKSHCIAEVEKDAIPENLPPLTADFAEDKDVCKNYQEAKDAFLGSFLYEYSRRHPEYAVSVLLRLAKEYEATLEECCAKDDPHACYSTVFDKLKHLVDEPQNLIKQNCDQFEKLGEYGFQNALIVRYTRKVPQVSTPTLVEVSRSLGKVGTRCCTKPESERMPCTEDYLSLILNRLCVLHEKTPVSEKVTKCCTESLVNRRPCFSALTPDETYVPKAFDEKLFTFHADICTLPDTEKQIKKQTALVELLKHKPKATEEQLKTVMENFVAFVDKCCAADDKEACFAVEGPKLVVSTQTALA

[18] = biological target: T4, Intestinal-type alkaline phosphatase; test: PubChem AID 488785; type: functional
[19] = biological target: T2, Intestinal-type alkaline phosphatase; test: inhibition of human intestinal alkaline phosphatase – biochemical, dose response (AID 488876); type: functional
[20] = biological target: T1, Alkaline phosphatase, tissue-nonspecific isozyme; test: TNAP enzyme inhibition by screening hits, dose response, selectivity assay for mouse IAP inhibitor project, biochemical, human TNAP, uHTS hits (AID 488906); type: functional
[21] = biological target: T9, Ubiquitin-conjugating enzyme E2 N (Homo sapiens, UniProt P61088); type: functional;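 further: Dose-response confirmation in a TR-FRET assay detecting UBC13-driven polyubiquitin chain formation, inhibition measured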
T9 sequence (P61088 whole entry): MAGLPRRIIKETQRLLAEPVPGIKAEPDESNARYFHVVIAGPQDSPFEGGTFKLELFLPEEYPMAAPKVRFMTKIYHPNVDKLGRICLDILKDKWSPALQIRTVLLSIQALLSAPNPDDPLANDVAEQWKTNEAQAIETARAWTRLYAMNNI

[22] = biological target: T10, Cytochrome P450 1A2 (Homo sapiens, UniProt P05177);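 further: PubChem cytochrome P450 panel assay, CYP1A2 panel member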
T10 sequence (P05177 whole entry): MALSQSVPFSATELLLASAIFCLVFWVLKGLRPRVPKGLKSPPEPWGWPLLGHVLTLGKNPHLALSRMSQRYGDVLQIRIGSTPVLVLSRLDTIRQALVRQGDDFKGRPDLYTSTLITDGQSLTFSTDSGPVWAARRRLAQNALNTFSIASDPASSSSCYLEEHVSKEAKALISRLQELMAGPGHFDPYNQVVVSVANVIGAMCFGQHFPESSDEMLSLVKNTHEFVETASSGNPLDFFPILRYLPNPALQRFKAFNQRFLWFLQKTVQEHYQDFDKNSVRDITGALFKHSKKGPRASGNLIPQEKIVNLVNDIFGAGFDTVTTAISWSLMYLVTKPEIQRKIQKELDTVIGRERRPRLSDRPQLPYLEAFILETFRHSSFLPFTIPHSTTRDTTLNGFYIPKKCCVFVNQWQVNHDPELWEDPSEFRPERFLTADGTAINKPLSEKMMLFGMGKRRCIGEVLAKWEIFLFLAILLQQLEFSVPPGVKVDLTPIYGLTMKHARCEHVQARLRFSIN

[23] = biological target: Hepatocyte nuclear factor 4-alpha (Homo sapiens, UniProt P41235); type: functional, cell-based;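 further: biochemical luminescence-based dose-response counterscreen measuring inhibition of HNF4 dimerization, run alongside a screen for blockers of ABHD5–perilipin-5 interaction; split luciferase complementation of HNF4 fusion proteins in cell lysate measuring dimerization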
Sequence of Hepatocyte nuclear factor 4-alpha (P41235 whole entry, the tested form may be a part): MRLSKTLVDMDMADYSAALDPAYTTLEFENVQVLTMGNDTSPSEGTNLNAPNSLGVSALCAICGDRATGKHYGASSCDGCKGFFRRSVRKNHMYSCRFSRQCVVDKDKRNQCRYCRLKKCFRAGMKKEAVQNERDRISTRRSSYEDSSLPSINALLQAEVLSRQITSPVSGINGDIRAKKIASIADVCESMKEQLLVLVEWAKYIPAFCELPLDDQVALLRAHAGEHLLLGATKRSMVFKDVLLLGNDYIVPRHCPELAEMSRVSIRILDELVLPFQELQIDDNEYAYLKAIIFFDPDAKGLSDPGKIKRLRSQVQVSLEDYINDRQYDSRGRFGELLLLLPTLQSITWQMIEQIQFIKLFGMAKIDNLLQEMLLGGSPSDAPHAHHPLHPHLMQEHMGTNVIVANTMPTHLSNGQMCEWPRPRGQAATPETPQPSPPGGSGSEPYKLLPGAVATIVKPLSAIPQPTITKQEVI

COc1ccc2nc3cc(Cl)ccc3c(Nc3cc(CN4CCCC4)c(O)c(CN4CCCC4)c3)c2n1
IC50 [1]: 20.3 µM (active) | EC50 [2]: > 91.2 µM (inactive) | EC50 [3]: 0.587 µM (active) | EC50 [4]: > 16 µM (not active) | AC50 [5]: 3.38 µM (active) | IC50 [6]: 5.61 µM (active) | EC50 [7]: > 3.38 µM (active) | AC50 [8]: 0.791 µM (active) | IC50 [9]: 40.5 µM (active) | AC50 [10]: < 0.351 µM (active) | EC50 [11]: 22 µM (active) | EC50 [12]: 32.2 µM (active) | IC50 [13]: 10.5 µM (active)

COc1ccc(-c2cc(C(F)(F)F)nc(SCC(=O)N(C)Cc3cn(C)nc3C)n2)cc1OC
AC50 [14]: 12.7 µM (active) | AC50 [15]: 23.3 µM (active)

O=C(N/N=C/c1cccnc1)c1cc(O)c(O)c(O)c1
AC50 [16]: < 0.005 µM (active) | IC50 [17]: > 94 µM (inactive) | IC50 [18]: 5.77 µM (active) | IC50 [19]: > 100 µM (inactive) | IC50 [20]: > 100 µM (inactive) | EC50 [11]: 4.24 µM (active) | EC50 [12]: 24.8 µM (active)

CN1[C@@H]2CC[C@H]1C[C@@H](OC1c3ccccc3CCc3ccccc31)C2 [DEPTROPINE]
IC50 [21]: > 20 µM (inactive) | AC50 [22]: inactive | IC50 [23]: 10 µM (inactive)
